Values belong to the compound of their own block, whether it stands above or below them.
Key:
BJ cells = test: MTS metabolic activity assay, BJ cells; format: cell-based; settings: Homo sapiens, 72 h, read-out: Cell metabolic activity (MTS), % of untreated control
Procedure, shortened: (§1)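 Absorbance at 590/620 nm after 3 h MTS incubation gave metabolic activity as % of untreated cells. Treatment lasted 72 h at varied concentrations, starting 24 h after seeding; Caco-2 grown with 20% FBS, others 10%.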

[1] = tested on: human pancreatic carcinoma (PANC-1); test: MTS metabolic activity assay, PANC-1 cells; format: cell-based; settings: for viability at 10 µM / viability at 20 µM / viability at 50 µM / viability at 100 µM / viability at 200 µM / viability at 300 µM / viability at 500 µM: Homo sapiens, 72 h, read-out: Cell metabolic activity (MTS), % of untreated control; for viability at 10 µM: PANC-1, 10 µM; for viability at 20 µM: PANC-1, 20 µM; for viability at 50 µM: PANC-1, 50 µM; for viability at 100 µM: PANC-1, 100 µM; for viability at 200 µM: PANC-1, 200 µM; for viability at 300 µM: PANC-1, 300 µM; for viability at 500 µM: PANC-1, 500 µM
Procedure, shortened: as §1

11β-HSD2 = molecular target: T1, 11β-HSD2 (Homo sapiens, UniProt P80365); test: Inhibition of 11β-HSD2 (cortisol to cortisone, human microsomes, cortisol ELISA); format: biochemical; settings: 2.5 h, 37 °C
T1 construct: Human liver microsomes were used as a source of 11β-HSD2 enzyme; tissue XenoTech Lot No. 1710160; host or cells: human kidney microsomes, mixed gender (method text says human liver microsomes)
T1 sequence (P80365 1-405): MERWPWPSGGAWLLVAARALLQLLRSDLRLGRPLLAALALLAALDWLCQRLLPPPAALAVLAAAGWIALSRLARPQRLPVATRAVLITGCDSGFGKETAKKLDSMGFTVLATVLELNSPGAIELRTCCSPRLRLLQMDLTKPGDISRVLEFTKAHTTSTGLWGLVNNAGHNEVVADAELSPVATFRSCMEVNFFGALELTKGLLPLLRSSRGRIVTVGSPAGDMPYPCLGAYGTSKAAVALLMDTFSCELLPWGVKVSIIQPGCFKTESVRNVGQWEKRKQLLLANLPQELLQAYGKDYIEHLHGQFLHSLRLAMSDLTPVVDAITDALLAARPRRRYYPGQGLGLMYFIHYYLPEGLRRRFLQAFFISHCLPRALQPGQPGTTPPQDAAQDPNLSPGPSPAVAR
Method: The resulting solution with a final volume of 100 µL was incubated for 2.5 h at 37 °C. […] The level of unreacted cortisol was measured by a commercially available ELISA kit.

[2] = tested on: human colon carcinoma (Caco-2); test: MTS metabolic activity assay, Caco-2 cells; format: cell-based; settings: 72 h; for viability at 10 µM / viability at 20 µM / viability at 50 µM / viability at 100 µM / viability at 200 µM / viability at 300 µM / viability at 500 µM: Homo sapiens, read-out: Cell metabolic activity (MTS), % of untreated control; for viability at 10 µM: Caco-2, 10 µM; for viability at 20 µM: Caco-2, 20 µM; for viability at 50 µM: Caco-2, 50 µM; for viability at 100 µM: Caco-2, 100 µM; for viability at 200 µM: Caco-2, 200 µM; for viability at 300 µM: Caco-2, 300 µM; for viability at 500 µM: Caco-2, 500 µM
Procedure, shortened: as §1

glioma (U-118 MG) = test: MTS metabolic activity assay, U-118 MG cells; format: cell-based; settings: Homo sapiens, U-118-MG, U118-MG, 72 h, read-out: Cell metabolic activity (MTS), % of untreated control
Procedure, shortened: as §1

11β-HSD1 = molecular target: T2, 11β-HSD1 (Homo sapiens, UniProt P28845); test: Inhibition of 11β-HSD1 (cortisone to cortisol, human liver microsomes, cortisol ELISA); format: biochemical; settings: for inhibition at 10 µM: 2.5 h, 37 °C
T2 construct: Human liver microsomes were used as a source of 11β-HSD1 enzyme; tissue XenoTech Lot No. 1410013; host or cells: pooled human liver microsomes, mixed gender
T2 sequence (P28845 whole entry): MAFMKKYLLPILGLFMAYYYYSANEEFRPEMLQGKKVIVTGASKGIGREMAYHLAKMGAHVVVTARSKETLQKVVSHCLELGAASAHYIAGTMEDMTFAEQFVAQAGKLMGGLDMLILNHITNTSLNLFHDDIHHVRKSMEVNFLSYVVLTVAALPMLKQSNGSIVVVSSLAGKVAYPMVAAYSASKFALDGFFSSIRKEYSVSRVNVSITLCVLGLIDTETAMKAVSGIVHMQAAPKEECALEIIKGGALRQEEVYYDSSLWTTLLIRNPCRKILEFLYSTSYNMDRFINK
Procedure, shortened: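 Human liver microsomal conversion of cortisone to cortisol, incubated 2.5 h at 37 °C and stopped with 18β-glycyrrhetinic acid. Cortisol was quantified by ELISA against inhibitor-free controls.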

[3] = tested on: human breast carcinoma (MDA-MB-231); test: MTS metabolic activity assay, MDA-MB-231 cells; format: cell-based; settings: 72 h; for viability at 10 µM / viability at 20 µM / viability at 50 µM / viability at 100 µM / viability at 200 µM / viability at 300 µM / viability at 500 µM: Homo sapiens, read-out: Cell metabolic activity (MTS), % of untreated control; for viability at 10 µM: MDA-MB-231, 10 µM; for viability at 20 µM: MDA-MB-231, 20 µM; for viability at 50 µM: MDA-MB-231, 50 µM; for viability at 100 µM: MDA-MB-231, 100 µM; for viability at 200 µM: MDA-MB-231, 200 µM; for viability at 300 µM: MDA-MB-231, 300 µM; for viability at 500 µM: MDA-MB-231, 500 µM; for cell viability, decreases to: MDA-MB-231, higher concentrations, range given for the most effective substances together
Procedure, shortened: as §1

[4] = tested on: skin melanoma (SK-MEL-30); test: MTS metabolic activity assay, SK-MEL-30 cells; format: cell-based; settings: 72 h; for viability at 10 µM / viability at 20 µM / viability at 50 µM / viability at 100 µM / viability at 200 µM / viability at 300 µM / viability at 500 µM: Homo sapiens, read-out: Cell metabolic activity (MTS), % of untreated control; for viability at 10 µM: SK-MEL-30, 10 µM; for viability at 20 µM: SK-MEL-30, 20 µM; for viability at 50 µM: SK-MEL-30, 50 µM; for viability at 100 µM: SK-MEL-30, 100 µM; for viability at 200 µM: SK-MEL-30, 200 µM; for viability at 300 µM: SK-MEL-30, 300 µM; for viability at 500 µM: SK-MEL-30, 500 µM; for cell viability, decreases to: SK-MEL-30, higher concentrations, range given for the most effective substances together
Procedure, shortened: as §1

inhibition at 10 µM (11β-HSD2): 37.7 ± 6.07%
IC50 (11β-HSD1): 2.75 ± 0.12 µM
inhibition at 10 µM (11β-HSD1): 56.6 ± 6.11%
Compound: CCCC1SC(NC2CCCC2)=NC1=O (stereo not drawn) [Compound 3c, 2-(cyclopentylamino)-5-propylthiazol-4(5H)-one]
viability at 10 µM (BJ cells): 98.2%
viability at 20 µM (BJ cells): 99.7%
viability at 50 µM (BJ cells): 102%
viability at 100 µM (BJ cells): 108%
viability at 200 µM (BJ cells): 112%
viability at 300 µM (BJ cells): 111%
viability at 500 µM (BJ cells): 115%
viability at 10 µM [1]: 108%
viability at 20 µM [1]: 106%
viability at 50 µM [1]: 112%
viability at 100 µM [1]: 114%
viability at 200 µM [1]: 116%
viability at 300 µM [1]: 115%
viability at 500 µM [1]: 122%
viability at 10 µM [2]: 88.1%
viability at 20 µM [2]: 86.6%
viability at 50 µM [2]: 87.6%
viability at 100 µM [2]: 82%
viability at 200 µM [2]: 86.1%
viability at 300 µM [2]: 83.1%
viability at 500 µM [2]: 68.5%
viability at 10 µM (glioma (U-118 MG)): 111%
viability at 20 µM (glioma (U-118 MG)): 110%
viability at 50 µM (glioma (U-118 MG)): 110%
viability at 100 µM (glioma (U-118 MG)): 114%
viability at 200 µM (glioma (U-118 MG)): 113%
viability at 300 µM (glioma (U-118 MG)): 112%
viability at 500 µM (glioma (U-118 MG)): 112%
viability at 10 µM [3]: 101%
viability at 20 µM [3]: 102%
viability at 50 µM [3]: 99.1%
viability at 100 µM [3]: 97.4%
viability at 200 µM [3]: 88.4%
viability at 300 µM [3]: 75.9%
viability at 500 µM [3]: 55%
cell viability, decreases to [3]: 20–65%
viability at 10 µM [4]: 101%
viability at 20 µM [4]: 102%
viability at 50 µM [4]: 101%
viability at 100 µM [4]: 101%
viability at 200 µM [4]: 95.9%
viability at 300 µM [4]: 75%
viability at 500 µM [4]: 45.5%
cell viability, decreases to [4]: 20–65%

inhibition at 10 µM (11β-HSD2): 38.6 ± 1.39%
IC50 (11β-HSD1): 0.18 ± 0.03 µM
inhibition at 10 µM (11β-HSD1): 87 ± 2.17%
Compound: O=C1N=C(NC2CCCC2)SC1c1ccc(Br)cc1 (stereo not drawn) [Compound 3g, 2-(cyclopentylamino)-5-(4-bromophenyl)thiazol-4(5H)-one]
viability at 10 µM (BJ cells): 99.7%
viability at 20 µM (BJ cells): 97.8%
viability at 50 µM (BJ cells): 90.8%
viability at 100 µM (BJ cells): 88.1%
viability at 200 µM (BJ cells): 84.2%
viability at 300 µM (BJ cells): 57.3%
viability at 500 µM (BJ cells): 55.4%
viability at 10 µM [1]: 116%
viability at 20 µM [1]: 122%
viability at 50 µM [1]: 145%
viability at 100 µM [1]: 139%
viability at 200 µM [1]: 94.1%
viability at 300 µM [1]: 57.9%
viability at 500 µM [1]: 57.2%
highest increase in proliferation (cell metabolic activity) ([1]; PANC-1, 72 h, range given for the named substances together): 115 to 144%
cell viability, decreases to ([2]; Caco-2, higher concentrations, range given for the most effective substances together): 20–65%
viability at 10 µM [2]: 91.9%
viability at 20 µM [2]: 88.8%
viability at 50 µM [2]: 87.3%
viability at 100 µM [2]: 80.7%
viability at 200 µM [2]: 56.3%
viability at 300 µM [2]: 30.1%
viability at 500 µM [2]: 30.9%
viability at 10 µM (glioma (U-118 MG)): 114%
viability at 20 µM (glioma (U-118 MG)): 110%
viability at 50 µM (glioma (U-118 MG)): 105%
viability at 100 µM (glioma (U-118 MG)): 104%
viability at 200 µM (glioma (U-118 MG)): 87.3%
viability at 300 µM (glioma (U-118 MG)): 40.6%
viability at 500 µM (glioma (U-118 MG)): 32.3%
viability at 10 µM [3]: 92.9%
viability at 20 µM [3]: 93.6%
viability at 50 µM [3]: 84.6%
viability at 100 µM [3]: 82%
viability at 200 µM [3]: 61.4%
viability at 300 µM [3]: 43.9%
viability at 500 µM [3]: 38%
cell viability, decreases to [3]: 20–65%
viability at 10 µM [4]: 95.4%
viability at 20 µM [4]: 97.5%
viability at 50 µM [4]: 98.3%
viability at 100 µM [4]: 93.1%
viability at 200 µM [4]: 71.5%
viability at 300 µM [4]: 29.7%
viability at 500 µM [4]: 25.2%
cell viability, decreases to [4]: 20–65%

— paper PMC10139140, “Synthesis of Novel 2-(Cyclopentylamino)thiazol-4(5H)-one Derivatives with Potential Anticancer, Antioxidant, and 11β-HSD Inhibitory Activities” (International Journal of Molecular Sciences, 2023)
